Values of other authors as cited in patent US20170151174A1, “MAGNETOENZYMATIC CARRIER SYSTEM FOR IMAGING AND TARGETED DELIVERY AND RELEASE OF ACTIVE AGENTS” (priority 2014, published 2017).

Tested on: colon HT-29 cancer cells
Details: SMase activity of 0.5 U/ml

Substance: sphingomyelinase [SMase]
- cell death: 80%
